In US12702686B2, “Antimicrobial therapy” (priority 2021, dated 2026):
Where no end group is shown, it is not given here.

Tests used:
[1] = test system: Primary normal human keratinocytes (NHEK); assay: LDH release cytotoxicity in keratinocytes; format: cell-based; details: 24 h, increasing concentrations
Description: NHEKs (ThermoFisher) were cultured in EpiLife medium containing 60 μM CaCl2) (ThermoFisher) supplemented with 1× human keratinocyte growth supplement (ThermoFisher) and 1× Antibiotic Antimycotic (Millipore Sigma) at 37° C., 5% CO 2. All experiments performed on NHEKs were between passages 3 and 5 with cells at 70-80% confluency.

S. pseudintermedius ST71 = assay: Minimum inhibitory concentration, broth micro dilution; format: cell-based, Staphylococcus pseudintermedius; details: synthetic peptides, 18 h incubation
Description: MIC values were determined using a broth micro dilution method. Bacterial cells were grown to mid-late log phase, to an OD600 nm value of roughly 1.0 for each bacterial strain and then normalized to 1×10^7 CFU/mL. The PSMβ peptides or butanol extracts were dissolved in DMSO to a stock concentration of 10 mg/ml. The stock concentrations of antibiotics that were water-soluble were prepared with H2O or 100% ethanol if water-insoluble. The 1×10^7 CFU/ml bacterial cultures (10 μl) were aliquoted into 96-well microtiter plates and mixed with 95 μL of media with or without 2-fold dilutions of the conditioned supernatant, PSMβ peptides, butanol extracts or antibiotics and incubated for 16-18 h at 30° C. with shaking at 250 rpm. Growth inhibition was determined by measuring the OD600 nm readings of each well using a microplate reader (SpectraMax iD3, Molecular Devices). The MIC of each bacterial strain was determined by the lowest peptide concentration that inhibited more than 80% bacterial growth.

Compound	cytotoxicity by LDH release [1]	concentration at which S. pseudintermedius growth was inhibited (S. pseudintermedius ST71) [µg/mL]
CC[C@H](C)[C@H](NC(=O)[C@H](Cc1c[nH]c2ccccc12)NC(=O)[C@H](CCCCN)NC(=O)[C@@H](NC(=O)[C@H](CC(C)C)NC(=O)[C@H](CC(=O)O)NC(=O)CNC(=O)[C@@H](NC(=O)[C@@H](NC(=O)[C@H](CO)NC(=O)[C@@H](NC(=O)[C@@H](NC(=O)[C@H](CC(=O)O)NC(=O)[C@H](C)NC(=O)[C@H](C)NC(=O)[C@H](CCSC)NC=O)[C@@H](C)CC)[C@@H](C)CC)[C@@H](C)O)[C@@H](C)CC)C(C)C)C(=O)N[C@H](C(=O)N[C@@H](CC(=O)O)C(=O)N[C@H](C(=O)N[C@H](C(=O)N[C@@H](CC(N)=O)C(=O)N[C@@H](CCCCN)C(=O)N[C@@H](Cc1ccccc1)C(=O)N[C@@H](CCCCN)C(=O)N[C@@H](CCCCN)C(=O)O)C(C)C)[C@@H](C)O)[C@@H](C)CC [PSMγ]	highly cytotoxic	
Non-Formyl-MSKLTRVIVTSIMTVGFLTATLGLTAGNADAKLEGNGTLSQKQYQRLASQQF (H-MSKLTRVIVTSIMTVGFLTATLGLTAGNADAKLEGNGTLSQKQYQRLASQQF; listed as Staphylococcus felis) [EF-hand domain-containing peptide]		> 200
